Test results reported in publication doi:10.1101/212431v1, “Genetic variation across the human olfactory receptor repertoire alters odor perception” (biorxiv, 2017).

Target: T1, OR11A1 (reference haplotype MA) (Homo sapiens, UniProt Q9GZK7)
T1 construct: Hana3A cells co-transfected with RTP1S and M3-R
T1 sequence (Q9GZK7 1-315): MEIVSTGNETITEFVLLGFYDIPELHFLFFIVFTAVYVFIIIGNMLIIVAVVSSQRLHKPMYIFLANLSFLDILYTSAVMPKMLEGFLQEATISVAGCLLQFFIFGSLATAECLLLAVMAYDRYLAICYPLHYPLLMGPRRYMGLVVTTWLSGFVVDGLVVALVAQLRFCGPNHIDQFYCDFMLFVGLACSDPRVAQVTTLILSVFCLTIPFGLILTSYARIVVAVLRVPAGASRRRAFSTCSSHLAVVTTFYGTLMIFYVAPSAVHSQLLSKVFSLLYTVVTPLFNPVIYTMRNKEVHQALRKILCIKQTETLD
Assay: CRE-luciferase reporter assay in Hana3A cells
Format: cell-based
Settings: read-out: log(EC50 of reference MA) (converted)

SMILES: CCC1(O)C2(C)CCC(C2)C1(C)C (stereo not shown) [2-ethylfenchol]
- EC50: 0.158 µM
